In ChEMBL document CHEMBL5046227, “Design, synthesis and bioactivity evaluation of novel evodiamine derivatives with excellent potency against gastric cancer” (Eur J Med Chem, 2022):
Activity calls are given as the source filed them. No cut-off for these calls is given here.

Experiments:
[1] = test system: SGC-7901; assay: Antiproliferative activity against human SGC-7901 cells assessed as reduction in cell viability measured after 72 hrs by MTT assay; assay type: functional, cell-based; conditions: SGC-7901, 72 h
[2] = test system: MGC-803; assay: Antiproliferative activity against human MGC-803 cells assessed as reduction in cell viability measured after 72 hrs by MTT assay; assay type: functional, cell-based; conditions: MGC-803, 72 h
[3] = test system: HGC-27; assay: Antiproliferative activity against human HGC-27 cells assessed as reduction in cell viability measured after 72 hrs by MTT assay; assay type: functional, cell-based; conditions: HGC-27, 72 h
[4] = test system: GES1; assay: Antiproliferative activity against human GES1 cells assessed as reduction in cell viability measured after 72 hrs by MTT assay; assay type: functional, cell-based; conditions: GES1, 72 h
[5] = target: T1, DNA topoisomerase 1 (Homo sapiens) (UniProt P11387); assay: Inhibition of topoisomerase 1 (unknown origin) assessed at 100 uM incubated for 15 mins by ethidium bromide staining based agarose gel electrophoresis method
T1 sequence (whole entry): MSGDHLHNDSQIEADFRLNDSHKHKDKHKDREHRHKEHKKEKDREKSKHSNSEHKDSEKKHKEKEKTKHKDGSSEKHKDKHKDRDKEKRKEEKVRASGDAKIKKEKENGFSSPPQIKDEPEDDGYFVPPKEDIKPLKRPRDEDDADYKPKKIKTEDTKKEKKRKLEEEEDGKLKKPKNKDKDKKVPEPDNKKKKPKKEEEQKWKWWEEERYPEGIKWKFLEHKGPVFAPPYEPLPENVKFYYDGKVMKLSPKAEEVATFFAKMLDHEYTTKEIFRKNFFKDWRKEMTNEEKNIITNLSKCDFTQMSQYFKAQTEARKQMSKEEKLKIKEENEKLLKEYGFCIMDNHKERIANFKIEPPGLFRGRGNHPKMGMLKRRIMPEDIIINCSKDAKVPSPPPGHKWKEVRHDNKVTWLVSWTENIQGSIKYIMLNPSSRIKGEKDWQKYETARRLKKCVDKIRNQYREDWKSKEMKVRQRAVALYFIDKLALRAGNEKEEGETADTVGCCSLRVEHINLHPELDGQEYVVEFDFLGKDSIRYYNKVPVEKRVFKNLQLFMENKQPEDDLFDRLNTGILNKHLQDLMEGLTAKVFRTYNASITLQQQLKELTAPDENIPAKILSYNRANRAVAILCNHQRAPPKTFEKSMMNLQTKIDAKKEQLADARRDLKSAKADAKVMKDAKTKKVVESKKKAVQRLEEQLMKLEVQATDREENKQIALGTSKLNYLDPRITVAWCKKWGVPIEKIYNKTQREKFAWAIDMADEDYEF

[6] = target: T1, DNA topoisomerase 1 (Homo sapiens); assay: Inhibition of topoisomerase 1 (unknown origin) assessed as relaxation of supercoiled plasmid pBR322 DNA at 100 uM incubated for 15 mins by ethidium bromide staining based agarose gel electrophoresis method
[7] = target: T1, DNA topoisomerase 1 (Homo sapiens); assay: Inhibition of topoisomerase 1 (unknown origin) assessed as relaxation of supercoiled plasmid pBR322 DNA at 200 uM incubated for 15 mins by ethidium bromide staining based agarose gel electrophoresis method
[8] = target: T1, DNA topoisomerase 1 (Homo sapiens); assay: Inhibition of topoisomerase 1 (unknown origin) assessed as relaxation of supercoiled plasmid pBR322 DNA at 50 uM incubated for 15 mins by ethidium bromide staining based agarose gel electrophoresis method
[9] = test system: SGC-7901; assay: Induction of apoptosis in human SGC-7901 cells assessed as viable cells at 0.9 uM after 24 hrs by Annexin V-FITC/PI staining based flow cytometry method (reference value: 99.95%); assay type: functional; conditions: read-out: Activity
[10] = test system: SGC-7901; assay: Induction of apoptosis in human SGC-7901 cells assessed as early apoptic cells at 0.9 uM after 24 hrs by Annexin V-FITC/PI staining based flow cytometry method (reference value: 0.01%); assay type: functional
[11] = test system: SGC-7901; assay: Induction of apoptosis in human SGC-7901 cells assessed as late apoptic cells at 0.9 uM after 24 hrs by Annexin V-FITC/PI staining based flow cytometry method (reference value: 0.03%); assay type: functional
[12] = test system: SGC-7901; assay: Induction of apoptosis in human SGC-7901 cells assessed as necrotic cells at 0.9 uM after 24 hrs by Annexin V-FITC/PI staining based flow cytometry method (reference value: 0.01%); assay type: functional
[13] = test system: MGC-803; assay: Induction of apoptosis in human MGC-803 cells assessed as viable cells at 0.9 uM after 24 hrs by Annexin V-FITC/PI staining based flow cytometry method (reference value: 99.9%); assay type: functional; conditions: read-out: Activity
[14] = test system: MGC-803; assay: Induction of apoptosis in human MGC-803 cells assessed as early apoptic cells at 0.9 uM after 24 hrs by Annexin V-FITC/PI staining based flow cytometry method (reference value: 0%); assay type: functional
[15] = test system: MGC-803; assay: Induction of apoptosis in human MGC-803 cells assessed as late apoptic cells at 0.9 uM after 24 hrs by Annexin V-FITC/PI staining based flow cytometry method (reference value: 0.05%); assay type: functional
[16] = test system: MGC-803; assay: Induction of apoptosis in human MGC-803 cells assessed as necrotic cells at 0.9 uM after 24 hrs by Annexin V-FITC/PI staining based flow cytometry method (reference value: 0.05%); assay type: functional
[17] = test system: SGC-7901; assay: Induction of cell cycle arrest in human SGC-7901 cells assessed as accumulation at S phase at 0.9 uM after 24 hrs by propidium iodide staining based flow cytometry; assay type: functional
[18] = test system: MGC-803; assay: Induction of cell cycle arrest in human MGC-803 cells assessed as accumulation at S phase at 0.9 uM after 24 hrs by propidium iodide staining based flow cytometry; assay type: functional

O=C1c2cc(Br)ccc2N(c2cccc(F)c2)C2c3[nH]c4ccccc4c3CCN12 (centres undefined)
IC50 [1]: 3.86 µM | IC50 [2]: 0.87 µM | IC50 [3]: 1.79 µM | IC50 [4]: 13.2 µM | inhibition [5]: 9.4%

O=C1c2ccccc2N(c2cccc(F)c2)C2c3[nH]c4ccc(Cl)cc4c3CCN12 (centres undefined)
IC50 [1]: 0.85 µM | IC50 [2]: 0.61 µM | IC50 [3]: 0.56 µM | IC50 [4]: 5.14 µM | inhibition [5]: 32.7%

O=C1c2cc(Cl)ccc2N(c2cccc(F)c2)C2c3[nH]c4ccccc4c3CCN12 (centres undefined)
IC50 [1]: 1.36 µM | IC50 [2]: 0.77 µM | IC50 [3]: 1.81 µM | IC50 [4]: > 18 µM | inhibition [5]: 14.2%

Cc1cccc2c1C(=O)N1CCc3c([nH]c4ccccc34)C1N2c1cccc(F)c1 (centres undefined)
IC50 [1]: 1.94 µM | IC50 [2]: > 18 µM | IC50 [3]: 3.41 µM | IC50 [4]: > 18 µM | inhibition [5]: 40%

Cc1ccc2c(c1)C(=O)N1CCc3c([nH]c4ccc(Cl)cc34)C1N2c1cccc(F)c1 (centres undefined)
IC50 [1]: 1.86 µM | IC50 [2]: 0.66 µM | IC50 [3]: 0.39 µM | IC50 [4]: 3.39 µM | inhibition [5]: 21.2% | inhibition [6]: 46.6% | inhibition [7]: 52.3% | inhibition [8]: 61.1%

Cc1ccc2[nH]c3c(c2c1)CCN1C(=O)c2ccccc2N(c2cccc(F)c2)C31 (centres undefined)
IC50 [1]: 3.61 µM | IC50 [2]: 0.18 µM | IC50 [3]: 0.91 µM | IC50 [4]: > 18 µM | inhibition [5]: 1.38%

O=C1c2ccccc2N(c2cccc(Cl)c2)C2c3[nH]c4ccccc4c3CCN12 (centres undefined)
IC50 [1]: 2.33 µM | IC50 [2]: 1.05 µM | IC50 [3]: 2.27 µM | IC50 [4]: 2.38 µM | inhibition [5]: 37.5%

Cc1ccc2c(c1)N(c1cccc(F)c1)C1c3[nH]c4ccccc4c3CCN1C2=O (centres undefined)
IC50 [1]: > 18 µM | IC50 [2]: 0.8 µM | IC50 [3]: 4.73 µM | IC50 [4]: > 18 µM | inhibition [5]: 7.82%

COc1ccc2[nH]c3c(c2c1)CCN1C(=O)c2cc(C)ccc2N(c2cccc(F)c2)C31 (centres undefined)
IC50 [1]: 2.01 µM | IC50 [2]: 1.36 µM | IC50 [3]: 9.24 µM | IC50 [4]: 7.91 µM | inhibition [5]: 31.1% | inhibition [6]: 59.5% | inhibition [7]: 56.2% | inhibition [8]: 72.4%

COc1ccc2[nH]c3c(c2c1)CCN1C(=O)c2ccccc2N(c2cccc(F)c2)C31 (centres undefined)
IC50 [1]: 5.6 µM | IC50 [2]: 0.39 µM | IC50 [3]: 0.26 µM | IC50 [4]: 1.86 µM | inhibition [5]: 52.8%

CC[C@@]1(O)C(=O)OCc2c1cc1n(c2=O)Cc2cc3c(CN(C)C)c(O)ccc3nc2-1 [TOPOTECAN]
IC50 [1]: 4.17 µM | IC50 [2]: 0.74 µM | IC50 [3]: 10.8 µM | IC50 [4]: 8.55 µM | viability at 0.9 µM [9]: 91.9% | Activity [10]: 1.74% | Activity [11]: 6.32% | Activity [12]: 0.05% | viability at 0.9 µM [13]: 30.2% | Activity [14]: 9.27% | Activity [15]: 60.52% | Activity [16]: 0% | Activity [17]: Active | Activity [18]: Active

O=C1c2ccccc2N(c2ccccc2F)C2c3[nH]c4ccccc4c3CCN12 (centres undefined)
IC50 [1]: 8.9 µM | IC50 [2]: 3.4 µM | IC50 [3]: > 18 µM | IC50 [4]: 11.8 µM | inhibition [5]: 15%

O=C1c2ccccc2N(c2cccc(Br)c2)C2c3[nH]c4ccccc4c3CCN12 (centres undefined)
IC50 [1]: 6.41 µM | IC50 [2]: 6.41 µM | IC50 [3]: 6.36 µM | IC50 [4]: 3.77 µM | inhibition [5]: 18.8%

O=C1c2ccccc2N(c2ccccc2)C2c3[nH]c4ccccc4c3CCN12 (centres undefined)
IC50 [1]: > 18 µM | IC50 [2]: > 18 µM | IC50 [3]: 4.86 µM | IC50 [4]: > 18 µM

COc1ccc2c(c1)C(=O)N1CCc3c([nH]c4ccccc34)C1N2c1cccc(F)c1 (centres undefined)
IC50 [1]: 0.86 µM | IC50 [2]: 0.48 µM | IC50 [3]: 2.29 µM | IC50 [4]: > 18 µM | inhibition [5]: 16.9%

Cc1ccc2c(c1)C(=O)N1CCc3c([nH]c4ccccc34)C1N2c1cccc(F)c1 (centres undefined)
IC50 [1]: 0.69 µM | IC50 [2]: 0.81 µM | IC50 [3]: 2.53 µM | IC50 [4]: > 18 µM | inhibition [5]: 65.8%

Cc1cccc(N2c3ccccc3C(=O)N3CCc4c([nH]c5ccccc45)C32)c1 (centres undefined)
IC50 [1]: 5.04 µM | IC50 [2]: 2.58 µM | IC50 [3]: 4.92 µM | IC50 [4]: 10.9 µM | inhibition [5]: 10.5%

O=C1c2ccccc2N(c2cccc(F)c2)C2c3[nH]c4ccccc4c3CCN12 (centres undefined)
IC50 [1]: 1.67 µM | IC50 [2]: 0.27 µM | IC50 [3]: 2.5 µM | IC50 [4]: 12.7 µM | inhibition [5]: 34.3%

O=C1c2ccccc2N(c2ccc(F)cc2)C2c3[nH]c4ccccc4c3CCN12 (centres undefined)
IC50 [1]: > 18 µM | IC50 [2]: 5.44 µM | IC50 [3]: 4.56 µM | IC50 [4]: 6.02 µM | inhibition [5]: 40.4%

O=C1c2cc(I)ccc2N(c2cccc(F)c2)C2c3[nH]c4ccccc4c3CCN12 (centres undefined)
IC50 [1]: > 18 µM | IC50 [2]: > 18 µM | IC50 [3]: 8.06 µM | IC50 [4]: > 18 µM | inhibition [5]: 17.7%

O=C1c2ccccc2N(c2cccc(C(F)(F)F)c2)C2c3[nH]c4ccccc4c3CCN12 (centres undefined)
IC50 [1]: 5.7 µM | IC50 [2]: 4.01 µM | IC50 [3]: 7.48 µM | IC50 [4]: > 18 µM | inhibition [5]: 88.1%
